The test system of the data set is human peripheral blood mononuclear cells (PBMC). The experiment in a line: PBMC cytotoxicity assay (CellTiter-Glo). It is filed as cell-based. The note with it: cytotoxicity in stimulated PBMC, recorded as pCC50. As to the method: Compounds of the present invention were tested via high-throughput cellular assays utilizing detection of kynurenine via mass spectrometry and cytotoxicity as end-points. […] Compounds with IDO1 inhibitory properties decreased the amount of kynurenine produced by the cells via the tryptophan catabolic pathway. Cellular toxicity due to the effect of compound treatment was measured using CellTiter-Glo® reagent (CTG) (Promega Corporation, Madison, Wis.), which is based on luminescent detection of ATP, an indicator of metabolically active cells.
In preparation for the assays, test compounds were serially diluted 3-fold in DMSO from a typical top concentration of 1 mM or 5 mM and plated at 0.5 μL in 384-well, polystyrene, clear bottom, tissue culture treated plates with lids (Greiner Bio-One, Kremsmünster, Austria) to generate 11-point dose response curves. Low control wells (0% kynurenine or 100% cytotoxicity) contained either 0.5 μL of DMSO in the presence of unstimulated (−IFN-γ/−LPS) PBMCs for the mass spectrometry assay or 0.5 μL of DMSO in the absence of cells for the cytotoxicity assay, and high control wells (100% kynurenine or 0% cytotoxicity) contained 0.5 μL of DMSO in the presence of stimulated (+IFN-γ/+LPS) PBMCs for both the mass spectrometry and cytotoxicity assays.
Frozen stocks of PBMCs were washed and recovered in RPMI 1640 medium (Thermo Fisher Scientific, Inc., Waltham, Mass.) supplemented with 10% v/v heat-inactivated fetal bovine serum (FBS) (Thermo Fisher Scientific, Inc., Waltham, Mass.), and 1× penicillin-streptomycin antibiotic solution (Thermo Fisher Scientific, Inc., Waltham, Mass.). The cells were diluted to 1,000,000 cells/mL in the supplemented RPMI 1640 medium. 50 μL of either the cell suspension, for the mass spectrometry assay, or medium alone, for the cytotoxicity assay, were added to the low control wells, on the previously prepared 384-well compound plates, resulting in 50,000 cells/well or 0 cells/well respectively. IFN-γ and LPS were added to the remaining cell suspension at final concentrations of 100 ng/ml and 50 ng/ml respectively, and 50 μL of the stimulated cells were added to all remaining wells on the 384-well compound plates. The plates, with lids, were then placed in a 37° C., 5% CO2 humidified incubator for 2 days.
Following incubation, the 384-well plates were removed from the incubator and allowed to equilibrate to room temperature for 30 minutes. For the cytotoxicity assay, CellTiter-Glo® was prepared according to the manufacturer's instructions, and 40 μL were added to each plate well. After a twenty minute incubation at room temperature, luminescence was read on an EnVision® Multilabel Reader (PerkinElmer Inc., Waltham, Mass.). For the mass spectrometry assay, 10 μL of supernatant from each well of the compound-treated plates were added to 40 μL of acetonitrile, containing 10 μM of an internal standard for normalization, in 384-well, polypropylene, V-bottom plates (Greiner Bio-One, Kremsmünster, Austria) to extract the organic analytes. Following centrifugation at 2000 rpm for 10 minutes, 10 μL from each well of the acetonitrile extraction plates were added to 90 μL of sterile, distilled H2O in 384-well, polypropylene, V-bottom plates for analysis of kynurenine and the internal standard on the RapidFire 300 (Agilent Technologies, Santa Clara, Calif.) and 4000 QTRAP MS (SCIEX, Framingham, Mass.). MS data were integrated using Agilent Technologies' RapidFire Integrator software, and data were normalized for analysis as a ratio of kynurenine to the internal standard.
On the technique in general: Cellular ATP, detected with luciferase, serves as a proxy for viable cell number.

These results are taken from patent US10787442B2, “Modulators of indoleamine 2,3-dioxygenase” (GLAXOSMITHKLINE INTELLECTUAL PROPERTY DEVELOPMENT LIMITED, priority 2016, dated 2020).

As for `CC(C)CN(c1ncc(C(C)CC(=O)O)cc1Nc1nc(C(F)(F)F)ns1)C1CCC(O)CC1` (stereo not drawn) [Example 59, (3RS)-3-{6-[(2-methylpropyl)[(1rs&,4rs&)-4-hydroxycyclohexyl]amino]-5-{[3-(trifluoromethyl)-1,2,4-thiadiazol-5-yl]amino}pyridin-3-yl}butanoic acid], the “PBMC_TOX PXC50” value is below 5.0. The value for `CC(C)CN(c1ncc([C@H](C)CC(=O)O)cc1Nc1ccc(C#N)nc1)C1CCOCC1` [Example 62, (3R)-3-{5-[(6-cyanopyridin-3-yl)amino]-6-[(2-methylpropyl)(oxan-4-yl)amino]pyridin-3-yl}butanoic acid] was below 5.0; that for `CC(C)CN(c1ncc([C@H](C)CC(=O)O)cc1Nc1ccc(Cl)nc1)C1CC(F)(F)C1` [Example 19, (R)-3-(5-((6-chloropyridin-3-yl)amino)-6-((3,3-difluorocyclobutyl)(isobutyl)amino)pyridin-3-yl) butanoic acid] was below 5.0; that for `COCc1ccc(Nc2cc(C(C)CC(=O)O)cnc2N(CC(C)C)C2CCC(OC)CC2)nc1` (stereo not drawn) [Example 47, (3RS)-3-(5-{[5-(methoxymethyl)pyridin-2-yl]amino}-6-[(2-methylpropyl)[(1rs&,4rs&)-4-methoxycyclohexyl]amino]pyridin-3-yl)butanoic acid] was below 5.0. The same measure for `CC(C)CN(c1ncc([C@H](C)CC(=O)O)cc1Nc1nc(C(F)(F)F)ns1)C1CCCCC1` [Example 11, (R)-3-(6-(cyclohexyl(isobutyl)amino)-5-((3-(trifluoromethyl)-1,2,4-thiadiazol-5-yl)amino)pyridin-3-yl)butanoic acid]: below 5.0; for `CC(C)CN(c1cnc([C@H](C)CC(=O)O)cc1Nc1ccc(Cl)cn1)C1CCOCC1` [Example 82, (3R)-3-{4-[(5-chloropyridin-2-yl)amino]-5-[(2-methylpropyl)(oxan-4-yl)amino]pyridin-2-yl}butanoic acid]: below 5.0. In the case of `CC(C)CN(c1ncc([C@H](C)CC(=O)O)cc1Nc1cnc(C#N)nc1)C1CCOCC1` [Example 65, (3R)-3-{5-[(2-cyanopyrimidin-5-yl)amino]-6-[(2-methylpropyl)(oxan-4-yl)amino]pyridin-3-yl}butanoic acid], the “PBMC_TOX PXC50” value is recorded as below 5.0. `CC(C)CN(c1ncc([C@H](C)CC(=O)O)cc1Nc1ccc(C(F)(F)F)cn1)C1CCOCC1` [Example 52, (3R)-3-{6-[(2-methylpropyl)(oxan-4-yl)amino]-5-{[5-(trifluoromethyl)pyridin-2-yl]amino}pyridin-3-yl}butanoic acid]: the “PBMC_TOX PXC50” value is below 5.0. The value for `CC(C)CN(c1ncc([C@H](C)CC(=O)O)cc1Nc1ccc(Cl)cn1)C1CCC(F)(F)CC1` [Example 18, (R)-3-(5-((5-chloropyridin-2-yl)amino)-6-((4,4-difluorocyclohexyl) (isobutyl)amino)pyridin-3-yl)butanoic acid] was below 5.0; that for `CC(C)CN(c1ncc([C@H](C)CC(=O)O)cc1Nc1ccc(Cl)nc1)C1CCC(F)(F)CC1` [Example 17, (R)-3-(5-((6-chloropyridin-3-yl)amino)-6-((4,4-difluorocyclohexyl)(isobutyl)amino)pyridin-3-yl)butanoic acid] was below 5.0.

`CC(C)CN(c1ncc([C@H](C)CC(=O)O)cc1Nc1nnc(C2CC2)s1)C1CCOCC1` [Example 38, (3R)-3-{5-[(5-cyclopropyl-1,3,4-thiadiazol-2-yl)amino]-6-[(2-methylpropyl)(oxan-4-yl)amino]pyridin-3-yl}butanoic acid]: the “PBMC_TOX PXC50” value is on record as below 5.0. The value for `CC(C)CN(CC(C)C)c1ncc([C@H](C)CC(=O)O)cc1Nc1nnc(C(F)(F)F)s1` [Example 51, (3R)-3-{6-[bis(2-methylpropyl)amino]-5-{[5-(trifluoromethyl)-1,3,4-thiadiazol-2-yl]amino}pyridin-3-yl}butanoic acid] was below 5.0; that for `CC(C)CN(c1ncc([C@H](C)CC(=O)O)cc1Nc1ccc(Cl)cn1)C1CC(F)(F)C1` [Example 75, (3R)-3-{5-[(5-chloropyridin-2-yl)amino]-6-[(3,3-difluorocyclobutyl)(2-methylpropyl)amino]pyridin-3-yl}butanoic acid] was below 5.0; that for `CO[C@H]1CC[C@@H](N(CC(C)C)c2ncc([C@H](C)CC(=O)O)cc2Nc2ccc(Cl)cn2)CC1` [Example 24, (R)-3-(5-((5-chloropyridin-2-yl)amino)-6-(isobutyl((1s,4S)-4-methoxycyclohexyl)amino)pyridin-3-yl)butanoic acid] was below 5.0. Regarding `Cc1nnc(Nc2cc([C@H](C)CC(=O)O)cnc2N(CC(C)C)C2CCCCC2)s1` [Example 45, (3R)-3-{6-[cyclohexyl(2-methylpropyl)amino]-5-[(5-methyl-1,3,4-thiadiazol-2-yl)amino]pyridin-3-yl}butanoic acid], the “PBMC_TOX PXC50” value is given as below 5.0. As to `CO[C@H]1CC[C@H](N(CC(C)C)c2ncc([C@H](C)CC(=O)O)cc2Nc2nc(C(F)(F)F)ns2)CC1` [Example 26, (R)-3-(6-(isobutyl((1r,4R)-4-methoxycyclohexyl)amino)-5-((3-(trifluoromethyl)-1,2,4-thiadiazol-5-yl)amino)pyridin-3-yl)butanoic acid], the “PBMC_TOX PXC50” value is given as below 5.0. Take `CO[C@H]1CC[C@@H](N(CC(C)C)c2ncc([C@H](C)CC(=O)O)cc2Nc2ccc(C#N)nc2)CC1` [Example 23, (R)-3-(5-((6-cyanopyridin-3-yl)amino)-6-(isobutyl((1s,4S)-4-methoxycyclohexyl)amino)pyridin-3-yl)butanoic acid]: the “PBMC_TOX PXC50” value is below 5.0. The same measure for `CC(C)CN(c1ncc([C@H](C)CC(=O)NO)cc1Nc1ccc(Cl)cn1)C1CCOCC1` [Example 78, (3R)-3-{5-[(5-chloropyridin-2-yl)amino]-6-[(2-methylpropyl)(oxan-4-yl)amino]pyridin-3-yl}-N-hydroxybutanamide]: below 5.0; for `CC(C)CN(c1ncc([C@H](C)CC(=O)NS(=O)(=O)N(C)C)cc1Nc1ccc(Cl)cn1)C1CCOCC1` [Example 80, (3R)-3-{5-[(5-chloropyridin-2-yl)amino]-6-[(2-methylpropyl)(oxan-4-yl)amino]pyridin-3-yl}-N-(dimethylsulfamoyl)butanamide]: below 5.0; for `CC(C)CN(c1ncc([C@H](C)CC(=O)O)cc1Nc1ccc(Cl)nn1)C1CCOCC1` [Example 60, (3R)-3-{5-[(6-chloropyridazin-3-yl)amino]-6-[(2-methylpropyl)(oxan-4-yl)amino]pyridin-3-yl}butanoic acid]: below 5.0.

Regarding `CC(C)CN(c1ncc([C@H](C)CC(=O)O)cc1Nc1nc(C2CC2)ns1)C1CCOCC1` [Example 41, (3R)-3-{5-[(3-cyclopropyl-1,2,4-thiadiazol-5-yl)amino]-6-[(2-methylpropyl)(oxan-4-yl)amino]pyridin-3-yl}butanoic acid], the “PBMC_TOX PXC50” value is on record as below 5.0.

With `CC(C)CN(c1ncc([C@H](C)CC(=O)O)cc1Nc1nc(Cl)ns1)C1CCCCC1` [Example 12, (R)-3-(5-((3-chloro-1,2,4-thiadiazol-5-yl)amino)-6-(cyclohexyl(isobutyl)amino)pyridin-3-yl)butanoic acid], the “PBMC_TOX PXC50” value is given as below 5.0. The value for `COCc1nsc(Nc2cc([C@H](C)CC(=O)O)cnc2N(CC(C)C)C2CCOCC2)n1` [Example 56, (3R)-3-(5-{[3-(methoxymethyl)-1,2,4-thiadiazol-5-yl]amino}-6-[(2-methylpropyl)(oxan-4-yl)amino]pyridin-3-yl)butanoic acid] was below 5.0. The value for `CC(C)CN(c1ncc([C@H](C)CC(=O)O)cc1Nc1ccc(C(F)(F)F)nn1)C1CCOCC1` [Example 66, (3R)-3-{6-[(2-methylpropyl)(oxan-4-yl)amino]-5-{[6-(trifluoromethyl)pyridazin-3-yl]amino}pyridin-3-yl}butanoic acid] was below 5.0.
